According to patent US11807693B2 (priority 2014, dated 2023):
Starred links: 1 amine or outer side, 2 acyl side, 3 side chain; linkers in the order of their positions; H or OH if unused. Non-standard residues stand in square brackets, D forms with d. Residues, ends and D or L forms follow the SMILES beside them. *: point of attachment. Oic = O=C(O)[C@@H]1C[C@@H]2CCCC[C@@H]2N1; Phe(4-Cl) = N[C@@H](Cc1ccc(Cl)cc1)C(=O)O; dPhe(4-Cl) = N[C@H](Cc1ccc(Cl)cc1)C(=O)O; Phe(4-F) = N[C@@H](Cc1ccc(F)cc1)C(=O)O; γGlu = O=C(O)[C@H](CCC(=O)[*:2])N[*:1]; 1Nal = N[C@@H](Cc1cccc2ccccc12)C(=O)O; d(β3hF) = N[C@@H](CC(=O)O)Cc1ccccc1; NMeR = CN[C@@H](CCCNC(=N)N)C(=O)O; Palmitoyl = CCCCCCCCCCCCCCCC(=O)*; Tridecanoyl = CCCCCCCCCCCCC(=O)*; hArg = N=C(N)NCCCC[C@H](N)C(=O)O; 3Pal = N[C@@H](Cc1cccnc1)C(=O)O; Cha = N[C@@H](CC1CCCCC1)C(=O)O; αMeL = CC(C)C[C@](C)(N)C(=O)O; αMeOrn = C[C@](N)(CCCN)C(=O)O; αMeP = C[C@@]1(C(=O)O)CCCN1; β3hP = O=C(O)C[C@@H]1CCCN1; β3hS = N[C@@H](CO)CC(=O)O; Nle = CCCC[C@H](N)C(=O)O; Orn = NCCC[C@H](N)C(=O)O; Deg = CCC(N)(CC)C(=O)O; AEEA = NCCOCCOCC(=O)O; Aib = CC(C)(N)C(=O)O; βAla = NCCC(=O)O

The compounds below were run against T1, human APJ receptor (Homo sapiens, UniProt P35414) (assay: [35S] GTPγS assay, human APJ receptor). Settings: not given.
T1 construct: expressed in transfected cells
T1 sequence (P35414 1-380): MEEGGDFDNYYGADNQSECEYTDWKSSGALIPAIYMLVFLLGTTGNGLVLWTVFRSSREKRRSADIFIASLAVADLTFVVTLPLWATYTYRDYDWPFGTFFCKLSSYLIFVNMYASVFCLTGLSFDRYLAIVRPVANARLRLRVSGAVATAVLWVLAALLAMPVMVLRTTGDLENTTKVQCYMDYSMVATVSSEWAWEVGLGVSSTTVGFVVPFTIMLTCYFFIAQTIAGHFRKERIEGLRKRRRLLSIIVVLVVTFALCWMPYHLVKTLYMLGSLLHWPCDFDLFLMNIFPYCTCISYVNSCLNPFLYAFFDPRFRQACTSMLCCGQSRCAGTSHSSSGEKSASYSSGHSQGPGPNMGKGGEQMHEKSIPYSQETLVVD
Format: biochemical

Row | Compound | EC50 [nM]
1 | CCCC[C@H](NC(=O)[C@@H]1C[C@@H]2CCCC[C@@H]2N1C(=O)CNC(=O)[C@H](CCCCN)NC(=O)[C@H](Cc1c[nH]cn1)NC(=O)[C@H](CO)NC(=O)[C@H](CC1CCCCC1)NC(=O)[C@H](CCCNC(=N)N)N(C)C(=O)[C@@H]1CCCN1C(=O)[C@H](CCCCNC(=N)N)NC(=O)[C@H](CCC(N)=O)NC(=O)[C@H](CCCCNC(=N)N)NC(=O)[C@H](CCCCNC(=N)N)NC(C)=O)C(=O)N1CCC[C@H]1C(=O)N[C@@H](Cc1ccc(Cl)cc1)C(=O)O [compound 56] (Ac-[hArg][hArg]Q[hArg]P[NMeR][Cha]SHKG[Oic][Nle]P[Phe(4-Cl)]-OH) | 0.176

Same assay, conditions: Table 16

Row | Compound | EC50 [nM]
2 | CCCCCCCCCCCCC(=O)N[C@@H](CCC(=O)NCCOCCOCC(=O)NCCOCCOCC(=O)N[C@H](CCC(N)=O)C(=O)N[C@@H](CCCCNC(=N)N)C(=O)N1CCC[C@H]1C(=O)N(C)[C@@H](CCCNC(=N)N)C(=O)N[C@@H](CC1CCCCC1)C(=O)N[C@@H](CO)C(=O)N[C@@H](Cc1c[nH]cn1)C(=O)N[C@@H](CCCCN)C(=O)NCCC(=O)N1[C@H](C(=O)N[C@@H](CCCC)C(=O)N2CCC[C@H]2C(=O)N[C@H](Cc2ccc(Cl)cc2)C(=O)O)C[C@@H]2CCCC[C@@H]21)C(=O)O [compound 294] ({Tridecanoyl-γGlu-AEEA-AEEA}-[dQ][hArg]P[NMeR][Cha]SHK[βAla][Oic][Nle]P[dPhe(4-Cl)]-OH) | > 4170
3 | CCCCCCCCCCCCC(=O)N[C@@H](CCC(=O)NCCOCCOCC(=O)NCCOCCOCC(=O)N[C@H](CCC(N)=O)C(=O)N[C@H](CCC(=O)O)C(=O)N1CCC[C@H]1C(=O)N(C)[C@@H](CCCNC(=N)N)C(=O)N[C@@H](CC1CCCCC1)C(=O)N[C@@H](CO)C(=O)N[C@@H](Cc1c[nH]cn1)C(=O)N[C@@H](CCCCN)C(=O)NCC(=O)N1[C@H](C(=O)N[C@@H](CCCC)C(=O)NC(C)(C)C(=O)N[C@@H](Cc2ccc(Cl)cc2)C(=O)O)C[C@@H]2CCCC[C@@H]21)C(=O)O [compound 525] ({Tridecanoyl-γGlu-AEEA-AEEA}-[dQ][dE]P[NMeR][Cha]SHKG[Oic][Nle][Aib][Phe(4-Cl)]-OH) | 159
4 | CCCCCCCCCCCCC(=O)N[C@@H](CCC(=O)NCCOCCOCC(=O)NCCOCCOCC(=O)N[C@@H](CCC(N)=O)C(=O)N[C@@H](CCCCNC(=N)N)C(=O)N1CCC[C@H]1C(=O)N(C)[C@@H](CCCNC(=N)N)C(=O)N[C@@H](CC1CCCCC1)C(=O)N[C@@H](CO)C(=O)N[C@@H](Cc1c[nH]cn1)C(=O)N[C@@H](CCCCN)C(=O)NCC(=O)N1CCC[C@H]1C(=O)N[C@@H](CCCC)C(=O)N1CCC[C@H]1C(=O)N[C@@H](Cc1ccc(Cl)cc1)C(=O)O)C(=O)O [compound 408] ({Tridecanoyl-γGlu-AEEA-AEEA}-Q[hArg]P[NMeR][Cha]SHKGP[Nle]P[Phe(4-Cl)]-OH) | 0.0768
5 | CCCCCCCCCCCCC(=O)N[C@@H](CCC(=O)NCCOCCOCC(=O)NCCOCCOCC(=O)N[C@@H](CCC(N)=O)C(=O)N[C@@H](CCCNC(=N)N)C(=O)N1CCC[C@H]1C(=O)N(C)[C@@H](CCCNC(=N)N)C(=O)N[C@@H](CC1CCCCC1)C(=O)N[C@@H](CO)C(=O)N[C@@H](Cc1c[nH]cn1)C(=O)N[C@@H](CCCCN)C(=O)NCC(=O)N1[C@H](C(=O)N[C@@H](CCCC)C(=O)N2CCC[C@H]2C(=O)N[C@H](Cc2ccc(Cl)cc2)C(=O)O)C[C@@H]2CCCC[C@@H]21)C(=O)O [compound 381] ({Tridecanoyl-γGlu-AEEA-AEEA}-QRP[NMeR][Cha]SHKG[Oic][Nle]P[dPhe(4-Cl)]-OH) | 6.11
6 | CCCCCCCCCCCCC(=O)N[C@@H](CCC(=O)NCCOCCOCC(=O)NCCOCCOCC(=O)N[C@H](CCC(N)=O)C(=O)N[C@@H](CCCCNC(=N)N)C(=O)N1CCC[C@H]1C(=O)N[C@H](CCCNC(=N)N)C(=O)N[C@@H](CC1CCCCC1)C(=O)N[C@@H](CO)C(=O)N[C@@H](Cc1c[nH]cn1)C(=O)N[C@@H](CCCCN)C(=O)NCC(=O)N1[C@H](C(=O)N[C@@H](CCCC)C(=O)N2CCC[C@H]2C(=O)N[C@@H](Cc2cccc3ccccc23)C(=O)O)C[C@@H]2CCCC[C@@H]21)C(=O)O [compound 367] ({Tridecanoyl-γGlu-AEEA-AEEA}-[dQ][hArg]P[dR][Cha]SHKG[Oic][Nle]P[1Nal]-OH) | 26.4
7 | CCCCCCCCCCCCC(=O)N[C@@H](CCC(=O)NCCOCCOCC(=O)NCCOCCOCC(=O)N[C@H](CCC(N)=O)C(=O)N[C@@H](CCCNC(=N)N)C(=O)N1CCC[C@H]1C(=O)N(C)[C@@H](CCCNC(=N)N)C(=O)N[C@@H](CC1CCCCC1)C(=O)N[C@@H](CO)C(=O)N[C@@H](Cc1c[nH]cn1)C(=O)N[C@@H](CCCCN)C(=O)NCC(=O)N1[C@H](C(=O)N[C@@H](CCCC)C(=O)NC(CC)(CC)C(=O)N[C@@H](Cc2ccc(Cl)cc2)C(=O)O)C[C@@H]2CCCC[C@@H]21)C(=O)O [compound 549] ({Tridecanoyl-γGlu-AEEA-AEEA}-[dQ]RP[NMeR][Cha]SHKG[Oic][Nle][Deg][Phe(4-Cl)]-OH) | 1.2
8 | CCCCCCCCCCCCC(=O)N[C@@H](CCC(=O)NCCOCCOCC(=O)NCCOCCOCC(=O)N[C@H](CCC(N)=O)C(=O)N[C@@H](CCCNC(=N)N)C(=O)N1CCC[C@H]1C(=O)N(C)[C@@H](CCCNC(=N)N)C(=O)N[C@@](C)(CC(C)C)C(=O)N[C@@H](CO)CC(=O)N[C@@H](Cc1c[nH]cn1)C(=O)N[C@@H](CCCCN)C(=O)NCC(=O)N1[C@H](C(=O)N[C@@H](CCCC)C(=O)N2CCC[C@@]2(C)C(=O)N[C@@H](Cc2ccc(Cl)cc2)C(=O)O)C[C@@H]2CCCC[C@@H]21)C(=O)O [compound 518] ({Tridecanoyl-γGlu-AEEA-AEEA}-[dQ]RP[NMeR][αMeL][β3hS]HKG[Oic][Nle][αMeP][Phe(4-Cl)]-OH) | 0.113

Same assay, conditions: human APJ receptor

Row | Compound | EC50 [nM]
9 | CCCCCCCCCCCCCCCC(=O)N[C@@H](CCC(=O)NCCOCCOCC(=O)NCCOCCOCC(=O)N[C@H](CCC(N)=O)C(=O)N[C@@H](CCCNC(=N)N)C(=O)N1CCC[C@H]1C(=O)N(C)[C@@H](CCCNC(=N)N)C(=O)N[C@@](C)(CC(C)C)C(=O)N[C@@H](CO)C(=O)N[C@@H](Cc1c[nH]cn1)C(=O)N[C@@H](CCCN)C(=O)NCC(=O)N1[C@H](C(=O)N[C@@H](CCCC)C(=O)N2CCC[C@H]2CC(=O)N[C@@H](Cc2ccc(Cl)cc2)C(=O)O)C[C@@H]2CCCC[C@@H]21)C(=O)O [compound 634] ({Palmitoyl-γGlu-AEEA-AEEA}-[dQ]RP[NMeR][αMeL]SH[Orn]G[Oic][Nle][β3hP][Phe(4-Cl)]-OH) | 0.165
10 | CCCCCCCCCCCCCCCC(=O)N[C@@H](CCC(=O)NCCOCCOCC(=O)NCCOCCOCC(=O)N[C@H](CCC(N)=O)C(=O)N[C@@H](CCCNC(=N)N)C(=O)N1CCC[C@H]1C(=O)N(C)[C@@H](CCCNC(=N)N)C(=O)N[C@@](C)(CC(C)C)C(=O)N[C@@H](CO)C(=O)N[C@@H](Cc1c[nH]cn1)C(=O)N[C@@H](Cc1cccnc1)C(=O)NCC(=O)N1[C@H](C(=O)N[C@@H](CCCC)C(=O)N2CCC[C@H]2CC(=O)N[C@@H](Cc2ccc(Cl)cc2)C(=O)O)C[C@@H]2CCCC[C@@H]21)C(=O)O [compound 636] ({Palmitoyl-γGlu-AEEA-AEEA}-[dQ]RP[NMeR][αMeL]SH[3Pal]G[Oic][Nle][β3hP][Phe(4-Cl)]-OH) | 1.59
11 | CCCCCCCCCCCCCCCC(=O)N[C@@H](CCC(=O)NCCOCCOCC(=O)NCCOCCOCC(=O)N[C@H](CCC(N)=O)C(=O)N[C@@H](CCCNC(=N)N)C(=O)N1CCC[C@H]1C(=O)N(C)[C@@H](CCCNC(=N)N)C(=O)N[C@@H](CC1CCCCC1)C(=O)N[C@@H](CO)C(=O)N[C@@H](Cc1c[nH]cn1)C(=O)N[C@@H](Cc1ccc(F)cc1)C(=O)NCC(=O)N1[C@H](C(=O)N[C@@H](CCCC)C(=O)N2CCC[C@H]2CC(=O)N[C@@H](CC(=O)O)Cc2ccccc2)C[C@@H]2CCCC[C@@H]21)C(=O)O [compound 622] ({Palmitoyl-γGlu-AEEA-AEEA}-[dQ]RP[NMeR][Cha]SH[Phe(4-F)]G[Oic][Nle][β3hP][d(β3hF)]-OH) | 11.8
12 | CCCCCCCCCCCCCCCC(=O)N[C@@H](CCC(=O)NCCOCCOCC(=O)NCCOCCOCC(=O)N[C@H](CCC(N)=O)C(=O)N[C@@H](CCCNC(=N)N)C(=O)N1CCC[C@H]1C(=O)N(C)[C@@H](CCCNC(=N)N)C(=O)N[C@@](C)(CC(C)C)C(=O)N[C@@H](CO)C(=O)N[C@@H](Cc1c[nH]cn1)C(=O)N[C@@](C)(CCCN)C(=O)NCC(=O)N1[C@H](C(=O)N[C@@H](CCCC)C(=O)N2CCC[C@H]2CC(=O)N[C@@H](Cc2ccc(Cl)cc2)C(=O)O)C[C@@H]2CCCC[C@@H]21)C(=O)O [compound 635] ({Palmitoyl-γGlu-AEEA-AEEA}-[dQ]RP[NMeR][αMeL]SH[αMeOrn]G[Oic][Nle][β3hP][Phe(4-Cl)]-OH) | 1.62
13 | CCCCCCCCCCCCCCCC(=O)N[C@@H](CCC(=O)NCCOCCOCC(=O)NCCOCCOCC(=O)N[C@H](CCC(N)=O)C(=O)N[C@@H](CCCNC(=N)N)C(=O)N1CCC[C@H]1C(=O)N(C)[C@@H](CCCNC(=N)N)C(=O)N[C@@H](CC1CCCCC1)C(=O)N[C@@H](CO)C(=O)N[C@@H](Cc1c[nH]cn1)C(=O)N[C@@H](CCCCN)C(=O)NCC(=O)N1CCC[C@H]1CC(=O)N[C@@H](CCCC)C(=O)N[C@@H](Cc1ccc(Cl)cc1)C(=O)O)C(=O)O [compound 613] ({Palmitoyl-γGlu-AEEA-AEEA}-[dQ]RP[NMeR][Cha]SHKG[β3hP][Nle][Phe(4-Cl)]-OH) | 1.66
14 | CC(C)C[C@@H](C(=O)N[C@@H](CO)C(=O)N[C@@H](Cc1c[nH]cn1)C(=O)N[C@@H](CCCCN)C(=O)NCC(=O)N1[C@H](C(=O)N[C@@H](Cc2ccc(I)cc2)C(=O)N2CCC[C@H]2C(=O)N[C@H](Cc2ccc(-c3ccccc3)cc2)C(=O)O)C[C@@H]2CCCC[C@@H]21)N(C)C(=O)[C@@H](CCCNC(=N)N)NC(=O)[C@@H]1CCCN1C(=O)[C@H](CCCCNC(=N)N)NC(=O)[C@H](CCC(N)=O)NC(=O)[C@@H](CCCNC(=N)N)NC(=O)[C@H](CCCCNC(=N)N)NC(=O)COCCOCCNC(=O)COCCOCCNC(=O)CC[C@H](NC(=O)CCCCCCCCC(=O)O)C(=O)O [compound 291] | 3.38
